Assay results as given in paper PMC3066655 (Journal of medicinal chemistry, 2011).

Legend:
σ1 receptor = σ1 receptor (Cavia porcellus, UniProt Q60492); experiment: σ1 receptor binding assay; parameters: species or system guinea pig; conditions: ratio of D3 and σ1 Ki values
σ2 receptor = molecular target: T1, σ2 receptor (Rattus norvegicus, UniProt Q5U3Y7); experiment: σ2 receptor binding assay, [3H]-DTG, liver membrane homogenates; conditions: for D3/ σ2 ratio: ratio of D3 and σ2 Ki values
T1 sequence (Q5U3Y7 1-176): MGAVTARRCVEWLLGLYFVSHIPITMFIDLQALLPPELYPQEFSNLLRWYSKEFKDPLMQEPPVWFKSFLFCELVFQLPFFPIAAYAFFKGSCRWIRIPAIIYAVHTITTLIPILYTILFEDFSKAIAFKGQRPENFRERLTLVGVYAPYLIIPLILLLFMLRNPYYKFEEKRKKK

Chain of σ1 receptor (Q60492 whole entry): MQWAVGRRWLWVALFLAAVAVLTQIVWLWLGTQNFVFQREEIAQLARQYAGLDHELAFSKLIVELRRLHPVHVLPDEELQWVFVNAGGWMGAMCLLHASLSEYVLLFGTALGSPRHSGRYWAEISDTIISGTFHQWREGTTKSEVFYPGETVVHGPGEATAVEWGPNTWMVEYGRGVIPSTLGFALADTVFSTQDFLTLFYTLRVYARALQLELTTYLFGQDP

SMILES	D3/ σ1 Ratio (σ1 receptor)	Ki (σ2 receptor) [nM]	D3/ σ2 ratio (σ2 receptor)
O=C(NC/C=C/CN1CCN(c2ccccc2OCCF)CC1)c1ccc(-c2ccsc2)cc1.O=C(O)C(=O)O [Compound 21e, 4-(Thiophen-3-yl)-N-(4-(4-(2-(2-fluoroethoxy)phenyl)piperazin-1-yl)-trans-but-2-enyl)benzamide]	7,076	1320	1,200
COc1ccccc1N1CCN(CCCCNC(=O)c2ccc(N(C)C)cc2)CC1 [Compound 1, 4-(Dimethylamino)-N-[4-(4-(2-methoxyphenyl)piperazin-1-yl)butyl]benzamide, reference compound]	1,573	1570	1,970
COc1ccccc1N1CCN(CCCCNC(=O)c2ccc(CCF)cc2)CC1 [Compound 2, reference compound]	–	2210	–
O=C(NC/C=C/CN1CCN(c2ccccc2OCCF)CC1)c1ccc(CCF)cc1.O=C(O)C(=O)O [Compound 21b, 4-(2-Fluoroethyl)-N-(4-(4-(2-(2-Fluoroethoxy)phenyl)piperazin-1-yl)-trans-butyl-2-enyl)benzamide]	6,541	2020	1,839
COc1ccccc1N1CCN(CCCCNC(=O)c2ccc(OCCF)cc2)CC1 [Compound 18a, 4-(2-Fluoroethoxy)-N-(4-(4-(2-methoxyphenyl)-piperazin-1-yl)-butyl)benzamide]	–	660 ± 36	–
COc1ccccc1N1CCN(CCCCNC(=O)c2ccc(OCCOCCOCCF)cc2)CC1.O=C(O)C(=O)O [Compound 18c, 4-(2-(2-(2-Fluoroethoxy)ethoxy)ethoxy)-N-(4-(4-(2-methoxyphenyl)piperazin-1-l)butyl)benzamide]	1,159	1120	–
